Laboratory results as given in patent EP4813381A1, “PHARMACEUTICAL USE OF GUAIANE SESQUITERPENE DERIVATIVE” (Nanjing University Of Chinese Medicine, priority 2023, dated 2025).

Experiments:
MDSCs and T cells = test: T cell proliferation in a co-culture model of MDSCs and T cells (flow cytometry); type: cell-based, mice; details: MDSCs treated with 1 µM compound for 12 h, 48 h co-culture with T cells (1:1), compared to the control group
Experimental: Under sterile conditions, the tibia was removed, both ends of the bone were cut, and bone marrow was repeatedly flushed into a 15 mL centrifuge tube using a 1 mL syringe filled with culture medium. Centrifuge at 1600 rpm for 5 min to collect bone marrow cells. […] The spleen cell suspension was then transferred into a 15 mL centrifuge tube. Centrifuge at 1600 rpm for 5 min to collect T cells. Wash twice with 1×PBS. Resuspend the centrifuged T cells in 1 mL PBS and add 1 mL of 10 µM CFDA-SE solution. Incubate at room temperature for 8 min. […] After drug administration, collect MDSC cells into centrifuge tubes. Centrifuge at 1600 rpm for 5 min, remove supernatant, resuspend in 1 mL fresh medium, and plate. Add 1 mL stimulated activated T cells (1:1 ratio) for 48 h co-culture. After incubation, collect cells into centrifuge tubes, wash twice with PBS, and incubate with Fc antibody at room temperature in the dark for 10 min. Add CD3-labeled flow cytometry antibody and incubate at 4 °C in the dark for 30 min. After incubation, wash cells with PBS, resuspend in 300 µL PBS, and analyze by flow cytometry.

[1] = Conversion rate of salt-form prodrugs to parent compound in HEPES buffer solution; type: physicochemical
Experimental: Adjust the pH to 7.4 using 0.5 M NaOH, then dilute to a final volume 100 mL with distilled water.
(§1) Sample Analysis: Dissolve 0.6 mg of the compound in 250 µl of deionized water separately. Add 250 µl of mouse serum or HEPES 7.4 solution to the sample, incubate at a constant temperature of 37 °C, and collect samples at different time points. Pipette 20 µl of the sample to an EP tube, add 60 µl of methanol, vortex to mix thoroughly, and centrifuge at 12,000 rpm at 4 °C for 10 min. At 1 h, 2 h, 4 h, 8 h, and 12 h respectively, collect the supernatant for HPLC analysis. Inject 10 µL of sample and record the corresponding peak areas.

[2] = Conversion rate of salt-form prodrugs to parent compound in mouse plasma; type: in vitro ADME; details: 37 °C
Experimental: Pharmaceutically acceptable salts of guaiane-type sesquiterpene lactone derivatives were selected and evaluated for their conversion rates to Compound 1 and Compound 83 in plasma and HEPES buffer, with results shown in Tables 2-1, 2-2, 3-1, and 3-2.
Plasma Preparation: Collect mouse plasma into an EP tube pre-loaded with sodium heparin, centrifuge at 8000 rpm for 10 minutes at 4°C, and then collect the supernatant.
as §1, with “areas. Chromatographic conditions: Hanbang C18 column (4.6 × 250 mm, 5 µm); mobile phase: acetonitrile: […] ammonium formate solution = 60:40; flow rate 1.0 mL/min; detection wavelength 210 nm; column temperature 30 °C. [drawing 171] Table 2-1. Conversion Rate of Compounds 20-42 to Compound 1 at Different Time Points in HEPES Buffer Solution” for “areas.”

[3] = conversion to Compound 1, HEPES buffer pH 7.4, 37 °C, 1 h
[4] = conversion to Compound 1, HEPES buffer pH 7.4, 37 °C, 2 h
[5] = conversion to Compound 1, HEPES buffer pH 7.4, 37 °C, 8 h
[6] = conversion to Compound 1, HEPES buffer pH 7.4, 37 °C, 12 h
[7] = conversion to Compound 1, mouse plasma, 1 h
[8] = conversion to Compound 1, mouse plasma, 2 h
[9] = conversion to Compound 1, mouse plasma, 8 h
[10] = conversion to Compound 1, mouse plasma, 12 h
[11] = conversion to Compound 1, HEPES buffer pH 7.4, 37 °C, 4 h
[12] = conversion to Compound 1, mouse plasma, 4 h

## C=C1C(=O)O[C@H]2[C@H]1CCC(C)=C1CC[C@@](C)(OC(=O)NC(CC)CC)[C@@H]12 [compound 69]
MDSCs and T cells
  T-cell proliferation rate (%): ++ (T-cell proliferation rate within the 20-40% range compared to the control group)

## CC1=C2CC[C@@](C)(OC(=O)N3CCCCC3)[C@@H]2[C@H]2OC(=O)[C@@H](CN3CCCC3)[C@@H]2CC1 [compound 96]
MDSCs and T cells
  T-cell proliferation rate (%): + (T-cell proliferation rate within the 0-20% range compared to the control group)

## C=C1C(=O)O[C@H]2[C@H]1CCC(C)=C1CC[C@@](C)(OC(=O)N(C)CCC)[C@@H]12 [compound 90]
MDSCs and T cells
  T-cell proliferation rate (%): ++ (T-cell proliferation rate within the 20-40% range compared to the control group)

## C=C1C(=O)O[C@H]2[C@H]1CCC(C)=C1CC[C@@](C)(OC(=O)NC)[C@@H]12 [compound 64]
MDSCs and T cells
  T-cell proliferation rate (%): +++ (T-cell proliferation rate >40% compared to the control group)

## CC(C)(C)OC(=O)N1CCN(C[C@@H]2C(=O)O[C@H]3[C@H]2CC[C@@]2(C)C[C@]24CC[C@@](C)(O)[C@H]34)CC1 [compound 44]
MDSCs and T cells
  T-cell proliferation rate (%): + (T-cell proliferation rate within the 0-20% range compared to the control group)

## C=C1C(=O)O[C@H]2[C@H]1CCC(C)=C1CC[C@@](C)(OC(=O)NCCC)[C@@H]12 [compound 66]
MDSCs and T cells
  T-cell proliferation rate (%): + (T-cell proliferation rate within the 0-20% range compared to the control group)

## C=C1C(=O)O[C@H]2[C@H]1CCC(C)=C1CC[C@@](C)(OC(=O)NCCN3CCN(C)CC3)[C@@H]12 [compound 95]
MDSCs and T cells
  T-cell proliferation rate (%): ++ (T-cell proliferation rate within the 20-40% range compared to the control group)

## C=C1C(=O)O[C@H]2[C@H]1CCC(C)=C1CC[C@@](C)(OC(=O)N3CCOCC3)[C@@H]12 [compound 87]
MDSCs and T cells
  T-cell proliferation rate (%): +++ (T-cell proliferation rate >40% compared to the control group)

## C=C1C(=O)O[C@H]2[C@H]1CCC(C)=C1CC[C@@](C)(OC(=O)N3CCN(CC)CC3)[C@@H]12 [compound 86]
MDSCs and T cells
  T-cell proliferation rate (%): ++ (T-cell proliferation rate within the 20-40% range compared to the control group)

## C=C1C(=O)O[C@H]2[C@H]1CCC(C)=C1CC[C@@](C)(OC(=O)NCCOCCO)[C@@H]12 [compound 76]
MDSCs and T cells
  T-cell proliferation rate (%): ++ (T-cell proliferation rate within the 20-40% range compared to the control group)

## C=C1C(=O)O[C@H]2[C@H]1CCC(C)=C1CC[C@@](C)(OC(=O)NCC(F)F)[C@@H]12 [compound 89]
MDSCs and T cells
  T-cell proliferation rate (%): ++ (T-cell proliferation rate within the 20-40% range compared to the control group)

## CC1=C2CC[C@@](C)(OC(=O)N3CCCCC3)[C@@H]2[C@H]2OC(=O)[C@@H](CN(C)C)[C@@H]2CC1 [compound 97]
MDSCs and T cells
  T-cell proliferation rate (%): + (T-cell proliferation rate within the 0-20% range compared to the control group)

## C=C1C(=O)O[C@H]2[C@H]1CCC(C)=C1CC[C@@](C)(OC(=O)NCCN(C)C)[C@@H]12 [compound 77]
MDSCs and T cells
  T-cell proliferation rate (%): + (T-cell proliferation rate within the 0-20% range compared to the control group)

## C=C1C(=O)O[C@H]2[C@H]1CCC(C)=C1CC[C@@](C)(OC(=O)NCCO)[C@@H]12 [compound 71]
MDSCs and T cells
  T-cell proliferation rate (%): +++ (T-cell proliferation rate >40% compared to the control group)

## C=C1C(=O)O[C@H]2[C@H]1CCC(C)=C1CC[C@@](C)(OC(=O)NC3CC3)[C@@H]12 [compound 70]
MDSCs and T cells
  T-cell proliferation rate (%): + (T-cell proliferation rate within the 0-20% range compared to the control group)

## C=C1C(=O)O[C@H]2[C@H]1CCC(C)=C1CC[C@@](C)(OC(=O)NC(C)C)[C@@H]12 [compound 68]
MDSCs and T cells
  T-cell proliferation rate (%): + (T-cell proliferation rate within the 0-20% range compared to the control group)

## C=C1C(=O)O[C@H]2[C@H]1CCC(C)=C1CC[C@@](C)(OC(=O)NCc3ccccc3)[C@@H]12 [compound 79]
MDSCs and T cells
  T-cell proliferation rate (%): ++ (T-cell proliferation rate within the 20-40% range compared to the control group)

## C=C1C(=O)O[C@H]2[C@H]1CCC(C)=C1CC[C@@](C)(OC(=O)NCCOC)[C@@H]12 [compound 74]
MDSCs and T cells
  T-cell proliferation rate (%): +++ (T-cell proliferation rate >40% compared to the control group)

## C=C1C(=O)O[C@H]2[C@H]1CCC(C)=C1CC[C@@](C)(OC(=O)N3CCN(C)CC3)[C@@H]12 [compound 85]
MDSCs and T cells
  T-cell proliferation rate (%): + (T-cell proliferation rate within the 0-20% range compared to the control group)

## C=C1C(=O)O[C@H]2[C@H]1CCC(C)=C1CC[C@@](C)(OC(=O)NCCCC)[C@@H]12 [compound 67]
MDSCs and T cells
  T-cell proliferation rate (%): ++ (T-cell proliferation rate within the 20-40% range compared to the control group)

## C=C1C(=O)O[C@H]2[C@H]1CCC(C)=C1CC[C@@](C)(OC(=O)N(CC)CCC)[C@@H]12 [compound 91]
MDSCs and T cells
  T-cell proliferation rate (%): ++ (T-cell proliferation rate within the 20-40% range compared to the control group)

## CN(C)C[C@@H]1C(=O)O[C@H]2[C@H]1CC[C@@]1(C)C[C@]13CC[C@@](C)(O)[C@H]23 [compound 40]
[1]; [3]
  Release rate: 6.8%
[1]; [4]
  Release rate: 14.6%
[1]; [5]
  Release rate: 44.0%
[1]; [6]
  Release rate: 50.2%
[2]; [7]
  Release rate: 6.7%
[2]; [8]
  Release rate: 14.2%
[2]; [9]
  Release rate: 44.0%
[2]; [10]
  Release rate: 52.6%

## C[C@@]12CC[C@@H]3[C@H](OC(=O)[C@H]3CN3CCC4(CC3)CC4)[C@@H]3[C@]1(CC[C@@]3(C)O)C2 [compound 37]
[1]; [3]
  Release rate: 7.2%
[1]; [4]
  Release rate: 16.8%
[1]; [11]
  Release rate: 28.3%
[1]; [5]
  Release rate: 44.1%
[1]; [6]
  Release rate: 65.8%
[2]; [7]
  Release rate: 8.2%
[2]; [8]
  Release rate: 17.8%
[2]; [12]
  Release rate: 29.3%
[2]; [9]
  Release rate: 48.1%
[2]; [10]
  Release rate: 67.8%

## CCN(CC)C[C@@H]1C(=O)O[C@H]2[C@H]1CC[C@@]1(C)C[C@]13CC[C@@](C)(O)[C@H]23 [compound 28]
[1]; [3]
  Release rate: 6.8%
[1]; [4]
  Release rate: 14.5%
[1]; [11]
  Release rate: 24.4%
[1]; [5]
  Release rate: 40.4%
[1]; [6]
  Release rate: 50.0%
[2]; [7]
  Release rate: 6.8%
[2]; [8]
  Release rate: 14.5%
[2]; [12]
  Release rate: 24.4%
[2]; [9]
  Release rate: 40.4%
[2]; [10]
  Release rate: 49.1%

## C[C@@]12CC[C@@H]3[C@H](OC(=O)[C@H]3CN3CCCCCCC3)[C@@H]3[C@]1(CC[C@@]3(C)O)C2 [compound 38]
[1]; [3]
  Release rate: 6.9%
[1]; [4]
  Release rate: 14.8%
[1]; [11]
  Release rate: 25.4%
[1]; [5]
  Release rate: 41.4%
[1]; [6]
  Release rate: 50.7%
[2]; [7]
  Release rate: 6.1%
[2]; [8]
  Release rate: 14.5%
[2]; [12]
  Release rate: 25.4%
[2]; [9]
  Release rate: 41.4%
[2]; [10]
  Release rate: 49.7%

## CC1=C2CC[C@@](C)(OC(=O)N3CCCCC3)[C@@H]2[C@H]2OC(=O)[C@@H](CN3CCCC3)[C@@H]2CC1 [compound 100]
[1]; conversion to Compound 83, HEPES buffer pH 7.4, 37 °C, 1 h
  Release rate: 6.5%
[1]; conversion to Compound 83, HEPES buffer pH 7.4, 37 °C, 2 h
  Release rate: 14.0%
[1]; conversion to Compound 83, HEPES buffer pH 7.4, 37 °C, 4 h
  Release rate: 26.4%
[1]; conversion to Compound 83, HEPES buffer pH 7.4, 37 °C, 8 h
  Release rate: 45.2%
[1]; conversion to Compound 83, HEPES buffer pH 7.4, 37 °C, 12 h
  Release rate: 51.4%
[2]; conversion to Compound 83, mouse plasma, 1 h
  Release rate: 6.6%
[2]; conversion to Compound 83, mouse plasma, 2 h
  Release rate: 13.8%
[2]; conversion to Compound 83, mouse plasma, 4 h
  Release rate: 25.6%
[2]; conversion to Compound 83, mouse plasma, 8 h
  Release rate: 43.2%
[2]; conversion to Compound 83, mouse plasma, 12 h
  Release rate: 53.0%
